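A five-concentration, 48-hour dose response in 96-well plates underlies each endpoint, interpolated linearly between surrounding concentrations. TGI marks complete inhibition of growth.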
Key:
Assay in all cases: DTP human tumour cell line panel, 48 h
[1] = test system: NCI/ADR-RES ovarian
[2] = test system: MDA-MB-435
[3] = test system: CAKI-1 renal
[4] = test system: HCT-116 colon
[5] = test system: MALME-3M melanoma
[6] = test system: MCF7 breast
[7] = test system: OVCAR-3 ovarian
[8] = test system: SNB-19 CNS
[9] = test system: NCI-H226 lung
[10] = test system: RPMI-8226 leukemia
[11] = test system: HCT-15 colon
[12] = test system: PC-3 prostate
[13] = test system: MDA-MB-231 breast
[14] = test system: SF-268 CNS
[15] = test system: SF-295 CNS
[16] = test system: SNB-75 CNS
[17] = test system: HL-60(TB) leukemia
[18] = test system: A498 renal
[19] = test system: MDA-N
[20] = test system: ACHN renal
[21] = test system: U251 CNS
[22] = test system: NCI-H522 lung
[23] = test system: K-562 leukemia
[24] = test system: SK-OV-3 ovarian
[25] = test system: UACC-62 melanoma
[26] = test system: OVCAR-8 ovarian
[27] = test system: CCRF-CEM leukemia
[28] = test system: BT-549 breast
[29] = test system: MOLT-4 leukemia
[30] = test system: SR leukemia
[31] = test system: OVCAR-5 ovarian
[32] = test system: TK-10 renal
[33] = test system: NCI-H460 lung
[34] = test system: UACC-257 melanoma
[35] = test system: KM12 colon
[36] = test system: IGROV1 ovarian
[37] = test system: SW-620 colon
[38] = test system: HOP-92 NSCLC
[39] = test system: SF-539 CNS
[40] = test system: SK-MEL-2 melanoma
[41] = test system: HT29 colon
[42] = test system: NCI-H23 lung
[43] = test system: SK-MEL-5 melanoma
[44] = test system: HOP-62 NSCLC
[45] = test system: M14 melanoma
[46] = test system: 786-0 renal
[47] = test system: LOX IMVI melanoma
[48] = test system: OVCAR-4 ovarian
[49] = test system: COLO 205 colon
[50] = test system: A549 NSCLC
[51] = test system: T-47D breast
[52] = test system: UO-31 renal
[53] = test system: EKVX NSCLC
[54] = test system: HS 578T breast
[55] = test system: RXF 393 renal
[56] = test system: HCC-2998 colon
[57] = test system: DU-145 prostate
[58] = test system: SK-MEL-28 melanoma
[59] = test system: SN12C renal

Measured: TGI

Cn1c(N(CCO)CCO)cnc1[N+](=O)[O-]
not listed: [56] | [57] | [58] | [59]
> 100 µM: all other assays above

CC1(C)CC(=O)C(CC(C(=O)C(=O)Nc2cc(C(F)(F)F)ccc2Cl)C(=O)c2ccco2)C(=O)C1 (stereo not given)
not listed: [16] | [30] | [44] | [55]
> 100 µM: all other assays above
